Laboratory results taken from PMC7397056, “Design, Facile Synthesis and Characterization of Dichloro Substituted Chalcones and Dihydropyrazole Derivatives for Their Antifungal, Antitubercular and Antiproliferative Activities” (Molecules, 2020).
Values after ≈ are worked out from the molar mass of the structure shown.

Columns and labels:
[1] = system: prostate cancer cell lines (DU-145); test: Antiproliferative activity, MTT assay; type: cell-based; details: Homo sapiens, 48 h, mean ± SD (n = 3)
Method: (§1) The antiproliferative activity of the compounds was determined their IC50 values. Methotrexate (Mtx; positive control) was used as a reference standard for comparing the antiproliferative activity of the target compounds. The MTT (3-(4,5-dimethylthiazol-2-yl)-2,5-diphenyl tetrazolium bromide) assay was based on the reduction of the soluble MTT (0.5 mg mL^−1, 100 µL) into a blue-purple formazan product, mainly by the activity of mitochondrial reductase enzymes inside the living cells. The prostate cancer cell lines, DU-145 cells, were cultured in Dulbecco’s Modified Eagle Medium (DMEM) media at 37 °C and humidified at 5% CO2. Stock solutions of the test compounds (17–46) were prepared in 0.1% DMSO followed by dilution with sterile water to obtain the desired final concentrations. Briefly, the cells were placed on 96-well plates at 100 µL total volume with the density of 1 × 10^4 cells per well and were allowed to adhere for 24 h. Then the medium was replaced with fresh media containing different dilutions of the test compounds and incubated for additional 48 h at 37 °C in DMEM with 10% fetal bovine serum (FBS) medium. Subsequently, the medium was replaced with 90 μL of fresh DMEM without FBS. The above wells were treated with 10 μL of MTT reagent (5 mg/mL of stock solution in DMEM without FBS) and incubated at 37 °C for 3–4 h. The formed blue formazan crystals were dissolved in 200 μL of DMSO. The optical density was determined at 570 nm using a micro plate reader. The assay was performed in triplicate for three independent experiments. The same experimentation was also done to confirm that the DMSO (negative control) had no effect in the study. The results had good reproducibility between replicate wells with standard errors below 10%. The antiproliferative activity results measured as IC50 values in µg/mL were converted and expressed in µM. Additionally, the cytotoxic activity of the compounds was also measured employing the same protocol discussed above to assess their toxicity on normal human cell lines (L02).

[2] = Cytotoxic activity on normal cells, MTT assay; type: cell-based; details: L02 cells (normal human cell line)
Method: as §1

[3] = system: normal human cell lines (L02); test: Cytotoxic activity on normal cells, MTT assay; type: cell-based; details: normal human cell line L02
Method: as §1

[4] = system: Mycobacterium tuberculosis H37Rv; test: Antitubercular activity, broth dilution assay (MIC); type: cell-based; details: for MIC: Mycobacterium tuberculosis, H37RV, 504 h, Middlebrook 7H9 broth, 37 °C, 21 days; for fold better activity than the standard pyrazinamide: ratio of MICs vs pyrazinamide (MIC 25.34 µM)
[5] = system: Aspergillus niger (ATCC-6275); test: Antifungal activity, serial tube dilution method (MIC); details: for MIC: Aspergillus niger, ATCC6275, 18 h, read-out: Antifungal activity MIC, A. niger, serial tube dilution, 37 °C, 18 h, average of three
[6] = system: Candida tropicalis (ATCC-1369); test: as above; details: for MIC: Candida tropicalis, ATCC1369, 18 h, read-out: Antifungal activity MIC, C. tropicalis, serial tube dilution, 37 °C, 18 h, average of three

| Structure (SMILES) | IC50 [1] | IC50 at 48 h [2] | Cytotoxic activity IC50, L02 [3] | MIC [4] | fold reduction in antitubercular activity compared with chalcone 15 ([4]; comparator compound 15) | melting point | MIC [5] | MIC [6] | fold improvement in antitubercular activity vs. compound 2 ([4]; comparator compound 2 (MIC 343.44 µM)) | fold better activity than the standard pyrazinamide [4] | fold improvement in activity over compound 17 (CH3 replaced with CF3), Aspergillus niger ([5]; comparator compound 17) | fold improvement in activity over compound 17 (CH3 replaced with CF3), Candida tropicalis ([6]; comparator compound 17) |
| --- | --- | --- | --- | --- | --- | --- | --- | --- | --- | --- | --- | --- |
| CN(Cc1cnc2nc(N)nc(N)c2n1)c1ccc(C(=O)N[C@@H](CCC(=O)O)C(=O)O)cc1 [Methotrexate, reference compound] | 11 ± 1 µM | > 75 µg/mL | >75 µg/mL |  |  |  |  |  |  |  |  |  |
| Clc1ccc(C2=NN(c3ccccc3)C(c3ccc[nH]3)C2)cc1Cl (stereo not drawn) [Compound 30, 3-(3,4-dichlorophenyl)-1-phenyl-5-(1H-pyrrol-2-yl)-4,5-dihydro-1H-pyrazole] | 84 ± 2 µM | > 75 µg/mL |  | 70.2 µM (≈ 25 µg/mL) | 1.5 fold | 171 °C | 44.9 µM (≈ 16 µg/mL) | 44.9 µM (≈ 16 µg/mL) |  |  |  |  |
| O=C(/C=C/c1ccccn1)c1ccc(Cl)c(Cl)c1 [Compound 11, (E)-1-(3,4-dichlorophenyl)-3-(pyridin-2-yl)prop-2-en-1-one] | 353 ± 2 µM | > 50 µg/mL |  | 45.1 µM (≈ 12.5 µg/mL) |  | 156 °C | 28.9 µM (≈ 8.03 µg/mL) | 28.9 µM (≈ 8.03 µg/mL) |  |  |  |  |
| Fc1ccc(C2CC(c3ccc(Cl)c(Cl)c3)=NN2c2ccccc2)c(F)c1 (stereo not drawn) [Compound 22, 3-(3,4-dichlorophenyl)-1-phenyl-5-(2,4-difluorophenyl)-4,5-dihydro-1H-pyrazole] | 262 ± 2 µM | > 75 µg/mL |  | 3.96 µM (≈ 1.6 µg/mL) |  | 291 °C | 19.8 µM (≈ 8 µg/mL) | 19.8 µM (≈ 8 µg/mL) |  |  |  |  |
| O=C(/C=C/c1ccc(C(F)(F)F)cc1)c1ccc(Cl)c(Cl)c1 [Compound 9, (E)-1-(3,4-dichlorophenyl)-3-(4-trifluoromethylphenyl)prop-2-en-1-one] | 292 ± 1 µM | > 50 µg/mL |  | 9.03 µM (≈ 3.12 µg/mL) |  | 169 °C | 11.6 µM (≈ 4 µg/mL) | 11.6 µM (≈ 4 µg/mL) | approximately 40 fold | 2.8 fold |  |  |
| Clc1ccc(C2=NN(c3ccccc3)C(c3ccncc3)C2)cc1Cl (stereo not drawn) [Compound 28, 3-(3,4-dichlorophenyl)-1-phenyl-5-(pyridin-4-yl)-4,5-dihydro-1H-pyrazole] | 173 ± 2 µM | > 75 µg/mL |  | 67.9 µM (≈ 25 µg/mL) |  | 214 °C | 21.7 µM (≈ 8 µg/mL) | 21.7 µM (≈ 8 µg/mL) |  |  |  |  |
| FC(F)(F)c1ccc(C2CC(c3ccc(Cl)c(Cl)c3)=NN2c2ccccc2)cc1 (stereo not drawn) [Compound 24, 3-(3,4-dichlorophenyl)-1-phenyl-5-(4-trifluoromethylphenyl)-4,5-dihydro-1H-pyrazole] | 257 ± 2 µM | > 75 µg/mL |  | 3.67 µM (≈ 1.6 µg/mL) |  | 125 °C | 9.18 µM (≈ 4 µg/mL) | 9.18 µM (≈ 4 µg/mL) |  | sevenfold | 4.6 fold | 4.6 fold |
| Cc1ccc(C2CC(c3ccc(Cl)c(Cl)c3)=NN2c2ccccc2)cc1 (stereo not drawn) [Compound 17, 3-(3,4-dichlorophenyl)-1-phenyl-5-(p-tolyl)-4,5-dihydro-1H-pyrazole] | 351 ± 2 µM | > 75 µg/mL |  | 262 µM (≈ 100 µg/mL) |  | 168 °C | 42 µM (≈ 16 µg/mL) | 42 µM (≈ 16 µg/mL) |  |  |  |  |
| O=C(/C=C/c1ccc(F)cc1F)c1ccc(Cl)c(Cl)c1 [Compound 7, (E)-1-(3,4-dichlorophenyl)-3-(2,4-difluorophenyl)prop-2-en-1-one] | 31 ± 2 µM | > 50 µg/mL |  | 9.96 µM (≈ 3.12 µg/mL) |  | 265 °C | 25.5 µM (≈ 8 µg/mL) | 51.1 µM (≈ 16 µg/mL) |  |  |  |  |
